{
  "source": "patent US12377104B1",
  "about": "“Methods for treating a fatty liver disease” (Madrigal Pharmaceuticals, Inc., priority 2024, dated 2025)",
  "test_system": "adults with biopsy-confirmed NASH",
  "assay": "MAESTRO-NASH: adverse events, serious adverse events, malignancies",
  "key": {"[1]": {"settings": "100 mg (n = 323), safety population"}},
  "text": "Safety end points included adverse events, biochemical assessments, and clinical assessments. Selected serious adverse events (including deaths, cardiovascular events, and potential drug-induced liver injury) were adjudicated by independent, external event-adjudication committees whose members were unaware of the trial-group assignments.",
  "data": [
    {"compound": "CC(C)c1cc(Oc2c(Cl)cc(-n3nc(C#N)c(=O)[nH]c3=O)cc2Cl)n[nH]c1=O", "note": "[Resmetirom, 2-(3,5-dichloro-4-((5-isopropyl-6-oxo-1,6-dihydropyridazin-3-yl)oxy)phenyl)-3,5-dioxo-2,3,4,5-tetrahydro-1,2,4-triazine-6-carbonitrile]", "values": [
      {"measurement": "Adverse event leading to trial discontinuation during entire treatment period, number of patients", "setting": "100 mg", "value": 25},
      {"measurement": "Adverse event leading to trial discontinuation during entire treatment period, percent of patients", "setting": "100 mg", "value": "(7.7) percent"},
      {"measurement": "Arthralgia, number of patients", "setting": "100 mg", "value": 35},
      {"measurement": "Arthralgia, percent of patients", "setting": "100 mg", "value": "(10.8) percent"},
      {"measurement": "Back pain, number of patients", "setting": "100 mg", "value": 27},
      {"measurement": "Back pain, percent of patients", "setting": "100 mg", "value": "(8.4) percent"},
      {"measurement": "Cancer reported, patients", "setting": "100 mg", "value": 3.4, "unit": "%"},
      {"measurement": "Covid-19, number of patients", "setting": "100 mg", "value": 54},
      {"measurement": "Covid-19, percent of patients", "setting": "100 mg", "value": "(16.7) percent"},
      {"measurement": "Diarrhea, number of patients", "setting": "100 mg", "value": 108},
      {"measurement": "Diarrhea, percent of patients", "setting": "100 mg", "value": "(33.4) percent"},
      {"measurement": "Fatal adverse event, number of patients", "setting": "100 mg", "value": 2},
      {"measurement": "Fatal adverse event, percent of patients", "setting": "100 mg", "value": "(0.6) percent"},
      {"measurement": "Fatigue, number of patients", "setting": "100 mg", "value": 26},
      {"measurement": "Fatigue, percent of patients", "setting": "100 mg", "value": "(8.0) percent"},
      {"measurement": "Grade 1: mild, number of patients", "setting": "100 mg", "value": 66},
      {"measurement": "Grade 1: mild, percent of patients", "setting": "100 mg", "value": "(20.4) percent"},
      {"measurement": "Grade 2: moderate, number of patients", "setting": "100 mg", "value": 183},
      {"measurement": "Grade 2: moderate, percent of patients", "setting": "100 mg", "value": "(56.7) percent"},
      {"measurement": "Grade 3 or higher: severe, number of patients", "setting": "100 mg", "value": 47},
      {"measurement": "Grade 3 or higher: severe, percent of patients", "setting": "100 mg", "value": "(14.6) percent"},
      {"measurement": "Major adverse cardiovascular event, number of patients", "setting": "100 mg", "value": 1},
      {"measurement": "Major adverse cardiovascular event, percent of patients", "setting": "100 mg", "value": "(0.3) percent"},
      {"measurement": "Nausea, number of patients", "setting": "100 mg", "value": 61},
      {"measurement": "Nausea, percent of patients", "setting": "100 mg", "value": "(18.9) percent"},
      {"measurement": "Other cardiovascular event, number of patients", "setting": "100 mg", "value": 1},
      {"measurement": "Other cardiovascular event, percent of patients", "setting": "100 mg", "value": "(0.3) percent"},
      {"measurement": "Pruritus, number of patients", "setting": "100 mg", "value": 37},
      {"measurement": "Pruritus, percent of patients", "setting": "100 mg", "value": "(11.5) percent"},
      {"measurement": "Urinary tract infection, number of patients", "setting": "100 mg", "value": 27},
      {"measurement": "Urinary tract infection, percent of patients", "setting": "100 mg", "value": "(8.4) percent"},
      {"measurement": "≥1 Adverse event attributed to resmetirom, number of patients", "setting": "100 mg", "value": 134},
      {"measurement": "≥1 Adverse event attributed to resmetirom, percent of patients", "setting": "100 mg", "value": "(41.5) percent"},
      {"measurement": "≥1 Adverse event, number of patients", "setting": "100 mg", "value": 296},
      {"measurement": "≥1 Adverse event, percent of patients", "setting": "100 mg", "value": "(91.6) percent"},
      {"measurement": "≥1 Serious adverse event attributed to resmetirom, number of patients", "setting": "100 mg", "value": 0},
      {"measurement": "≥1 Serious adverse event, number of patients", "setting": "100 mg", "value": 41},
      {"measurement": "Malignancy: Basal cell carcinoma", "setting": "100 mg (N = 323)", "value": "3 (0.9) n (%)"},
      {"measurement": "Malignancy: Breast carcinoma", "setting": "100 mg (N = 323)", "value": "2 (0.6) n (%)"},
      {"measurement": "Malignancy: Malignant melanoma", "setting": "100 mg (N = 323)", "value": "1 (0.3) n (%)"},
      {"measurement": "Malignancy: Skin cancer (squamous cell)", "setting": "100 mg (N = 323)", "value": "1 (0.3) n (%)"},
      {"measurement": "Patients with any malignancy", "setting": "100 mg (N = 323)", "value": "11 (3.4) n (%)"},
      {"measurement": "Patients with at least one TE-SAEs", "setting": "100 mg (N = 323)", "value": "41 (12.7) n (%)"},
      {"measurement": "SAE: Acute Gallstone-related disorders", "setting": "100 mg (N = 323)", "value": "3 (0.9) n (%)"},
      {"measurement": "SAE: COVID-19", "setting": "100 mg (N = 323)", "value": "1 (0.3) n (%)"},
      {"measurement": "SAE: COVID-19 pneumonia", "setting": "100 mg (N = 323)", "value": "0 n (%)"},
      {"measurement": "SAE: Cardiac disorders", "setting": "100 mg (N = 323)", "value": "3 (0.9) n (%)"},
      {"measurement": "SAE: Gastrointestinal disorders", "setting": "100 mg (N = 323)", "value": "7 (2.2) n (%)"},
      {"measurement": "SAE: General disorders and administration site conditions", "setting": "100 mg (N = 323)", "value": "5 (1.5) n (%)"},
      {"measurement": "SAE: Infections and infestations", "setting": "100 mg (N = 323)", "value": "5 (1.5) n (%)"},
      {"measurement": "SAE: Injury, poisoning and procedural complications", "setting": "100 mg (N = 323)", "value": "8 (2.5) n (%)"},
      {"measurement": "SAE: Musculoskeletal and connective tissue disorders", "setting": "100 mg (N = 323)", "value": "1 (0.3) n (%)"},
      {"measurement": "SAE: Nervous system disorders", "setting": "100 mg (N = 323)", "value": "2 (0.6) n (%)"},
      {"measurement": "SAE: Post procedural haemorrhage", "setting": "100 mg (N = 323)", "value": "1 (0.3) n (%)"},
      {"measurement": "SAE: Respiratory, thoracic and mediastinal disorders", "setting": "100 mg (N = 323)", "value": "4 (1.2) n (%)"},
      {"measurement": "Adverse event: Abdominal distension", "setting": "[1]", "value": "13 (4.0) no. (%)"},
      {"measurement": "Adverse event: Abdominal pain", "setting": "[1]", "value": "29 (9.0) no. (%)"},
      {"measurement": "Adverse event: Abdominal pain upper", "setting": "[1]", "value": "27 (8.4) no. (%)"},
      {"measurement": "Adverse event: Constipation", "setting": "[1]", "value": "28 (8.7) no. (%)"},
      {"measurement": "Adverse event: Cough", "setting": "[1]", "value": "18 (5.6) no. (%)"},
      {"measurement": "Adverse event: Decreased appetite", "setting": "[1]", "value": "16 (5.0) no. (%)"},
      {"measurement": "Adverse event: Dizziness", "setting": "[1]", "value": "19 (5.9) no. (%)"},
      {"measurement": "Adverse event: Gastrooesophageal reflux disease", "setting": "[1]", "value": "7 (2.2) no. (%)"},
      {"measurement": "Adverse event: Headache", "setting": "[1]", "value": "25 (7.7) no. (%)"},
      {"measurement": "Adverse event: Hypertension", "setting": "[1]", "value": "13 (4.0) no. (%)"},
      {"measurement": "Adverse event: Muscle spasms", "setting": "[1]", "value": "22 (6.8) no. (%)"},
      {"measurement": "Adverse event: Nasopharyngitis", "setting": "[1]", "value": "20 (6.2) no. (%)"},
      {"measurement": "Adverse event: Pain in extremity", "setting": "[1]", "value": "12 (3.7) no. (%)"},
      {"measurement": "Adverse event: Procedural pain", "setting": "[1]", "value": "9 (2.8) no. (%)"},
      {"measurement": "Adverse event: Rash", "setting": "[1]", "value": "21 (6.5) no. (%)"},
      {"measurement": "Adverse event: Sinusitis", "setting": "[1]", "value": "13 (4.0) no. (%)"},
      {"measurement": "Adverse event: Type 2 diabetes", "setting": "[1]", "value": "26 (8.0) no. (%)"},
      {"measurement": "Adverse event: Upper respiratory tract infection", "setting": "[1]", "value": "8 (2.5) no. (%)"},
      {"measurement": "Adverse event: Vomiting", "setting": "[1]", "value": "35 (10.8) no. (%)"},
      {"measurement": "drug-induced liver injury", "setting": "in vivo", "value": "no incidence of drug-induced liver injury"},
      {"measurement": "severe diarrhea", "setting": "in vivo", "value": "no episodes of severe diarrhea"},
      {"measurement": "median duration of diarrhea", "setting": "independent of dose", "value": "15 to 20", "unit": "days"}
    ]}
  ]
}
